Test results: patent US20230144436A1, “MUSCLE TARGETING COMPLEXES AND USES THEREOF FOR TREATING MYOTONIC DYSTROPHY” (Dyne Therapeutics, Inc., priority 2020, published 2023)

System: DMPK
Experiment: DMPK knockdown by transfected antisense oligonucleotides in DM1 C15 myotubes at 0.5 nM and 50 nM
Type: cell-based
Details: 72 hours, qPCR; for Percent DMPK Reduction: relative to vehicle control; for Normalized DMPK Remaining: relative to vehicle control = 1.00
Experimental: Two hundred and thirty-six oligonucleotides for targeting DMPK were generated using in silico analysis. Each individual oligonucleotide was evaluated for their ability to target DMPK in cellulo at two doses—0.5 nM (low dose) and 50 nM (high dose).
Briefly, DM1 C15 immortalized myoblasts were cultured in T-75 flasks until near confluency (˜80% confluent). Myoblasts were then disrupted with trypsin and seeded into 96-well microplates at a density of 50,000 cells/well. Cells were allowed to recover overnight before the growth media was washed out and replaced with a no-serum media to induce differentiation into myotubes. Differentiation proceeded for seven days prior to treatment with DMPK-targeting oligonucleotides.
On day seven following induction of differentiation, DM1 C15 myotubes were transfected with an individual oligonucleotide using 0.3 μL of Lipofectamine MessengerMax per well. All oligonucleotides were tested at both 0.5 nM and 50 nM final concentrations in biological triplicates. After treatment with oligonucleotides, cells were incubated for 72 hours prior to being harvested for total RNA. cDNA was synthesized from the total RNA extracts and qPCR was performed to determine expression levels of DMPK in technical quadruplicate. All qPCR data were analyzed using a traditional […] method and were normalized to a plate-based negative control that comprised cells treated with vehicle control (0.3 μL/well Lipofectamine MessengerMax without any oligonucleotide). Results from these experiments are shown in Table 10. ‘Normalized DMPK Remaining’ for each antisense oligonucleotide in Table 10 refers to the expression level of DMPK in cell treated with said antisense oligonucleotide relative to the negative control that comprised cells treated with vehicle control (wherein the expression level of the negative control has been normalized to equal 1.00)

Row | Substance | Percent DMPK Reduction (0.5 nM oligonucleotide) [%] | Normalized DMPK Remaining (0.5 nM oligonucleotide) | Percent DMPK Reduction (50 nM oligonucleotide) [%] | Normalized DMPK Remaining (50 nM oligonucleotide)
1 | 290 (GGCCAUGACAAUCUCCGCCA; chemistry not given here) [compound 290] | 42.38 | 0.58 | 75.00 | 0.25
2 | 291 (AUACUCCAUGACCAGGUACA; chemistry not given here) [compound 291] | 23.07 | 0.77 | 56.84 | 0.43
3 | 292 (GCCUCUGCCUCGCGUAGUUG; chemistry not given here) [compound 292] | 35.38 | 0.65 | 81.18 | 0.19
4 | 295 (CCUUGUAGUGGACGAUCUUG; chemistry not given here) [compound 295] | 17.20 | 0.83 | 65.91 | 0.34
5 | 296 (AUCUCCGCCAGGUAGAAGCG; chemistry not given here) [compound 296] | 42.37 | 0.58 | 65.50 | 0.35
6 | 297 (CUCAGGCUCUGCCGGGUGAG; chemistry not given here) [compound 297] | 30.13 | 0.70 | 63.07 | 0.37
7 | 298 (UGCUUCAUCUUCACUACCGC; chemistry not given here) [compound 298] | 28.82 | 0.71 | 60.24 | 0.40
8 | 300 (GGCCUCAGCCUCUGCCGCAG; chemistry not given here) [compound 300] | 20.12 | 0.80 | 71.28 | 0.29
9 | 302 (CCACGUAAUACUCCAUGACC; chemistry not given here) [compound 302] | 20.84 | 0.79 | 50.06 | 0.50
10 | 303 (CCGUUCCAUCUGCCCGCAGC; chemistry not given here) [compound 303] | 31.74 | 0.68 | 77.46 | 0.23
11 | 304 (UUCCCGAGUAAGCAGGCAGA; chemistry not given here) [compound 304] | 31.49 | 0.69 | 49.81 | 0.50
12 | 305 (UGAUCUUCAUGGCAUACACC; chemistry not given here) [compound 305] | 27.70 | 0.72 | 89.68 | 0.10
13 | 306 (AGGGACAGCCGCUGGAACTG; chemistry not given here) [compound 306] | 28.72 | 0.71 | 45.34 | 0.55
14 | 307 (GGGUUUGAUGUCCCUGUGCA; chemistry not given here) [compound 307] | 40.12 | 0.60 | 62.61 | 0.37
15 | 308 (UGACAAUCUCCGCCAGGUAG; chemistry not given here) [compound 308] | 38.86 | 0.61 | 66.56 | 0.33
16 | 309 (CACAGCGGUCCAGCAGGAUG; chemistry not given here) [compound 309] | 6.62 | 0.93 | 59.58 | 0.40
17 | 311 (CUCAGCCUCUGCCGCAGGGA; chemistry not given here) [compound 311] | 17.86 | 0.82 | 79.58 | 0.20
18 | 312 (GUCUCAGUGCAUCCAAAACG; chemistry not given here) [compound 312] | 18.85 | 0.81 | 46.13 | 0.54

Row | Substance | Percent DMPK Reduction (0.5 nM oligonucleotide) [%] | Normalized DMPK Remaining (0.5 nM oligonucleotide) | Percent DMPK Reduction (50 nM oligonucleotide) [%] | Normalized DMPK Remaining (50 nM oligonucleotide)
19 | 314 (UCAGCAGUGUCAGCAGGUCC; chemistry not given here) [compound 314] | 33.46 | 0.67 | 61.11 | 0.39
20 | 315 (GCUCCUGGGCGGCGCCAGAC; chemistry not given here) [compound 315] | 8.52 | 0.91 | 78.79 | 0.21
21 | 317 (AUCCGCUCCUGCAACUGCCG; chemistry not given here) [compound 317] | 12.80 | 0.87 | 40.06 | 0.60
22 | 318 (AGGAGCAGGGAAAGCGCCUC; chemistry not given here) [compound 318] | 33.24 | 0.67 | 62.37 | 0.38
23 | 319 (ACACCUGGCCCGUCUGCUUC; chemistry not given here) [compound 319] | 33.00 | 0.67 | 55.40 | 0.45
24 | 321 (GCUCCCUCUGCCUGCAGCAA; chemistry not given here) [compound 321] | 26.41 | 0.74 | 70.15 | 0.30
25 | 322 (GCUCAGGCUCUGCCGGGUGA; chemistry not given here) [compound 322] | 25.69 | 0.74 | 60.71 | 0.39
26 | 323 (UUGAUGUCCCUGUGCACGUA; chemistry not given here) [compound 323] | 25.67 | 0.74 | 55.13 | 0.45
27 | 324 (GCCUCAGCCUCUGCCGCAGG; chemistry not given here) [compound 324] | 16.37 | 0.84 | 46.42 | 0.54
28 | 325 (GGUAGUUCUCAUCCUGGAAG; chemistry not given here) [compound 325] | 25.48 | 0.75 | 56.15 | 0.44
29 | 326 (CAGCGCCCACCAGUCACACU; chemistry not given here) [compound 326] | 37.28 | 0.63 | 64.93 | 0.35
30 | 327 (CCCAAACUUGCUCAGCAGUG; chemistry not given here) [compound 327] | 37.02 | 0.63 | 61.78 | 0.38
31 | 328 (CUUGCCAUAGGUCUCCGCCG; chemistry not given here) [compound 328] | 27.04 | 0.73 | 71.05 | 0.29
32 | 329 (UACACCUGGCCCGUCUGCUU; chemistry not given here) [compound 329] | 31.10 | 0.69 | 57.43 | 0.43
33 | 330 (CCAGCGCCCACCAGUCACAC; chemistry not given here) [compound 330] | 36.17 | 0.64 | 70.96 | 0.29
34 | 331 (GGCCUCAGCCUGGCCGAAAG; chemistry not given here) [compound 331] | 14.49 | 0.86 | 64.80 | 0.35
35 | 332 (AAUCUCCGCCAGGUAGAAGC; chemistry not given here) [compound 332] | 35.85 | 0.64 | 65.27 | 0.35
36 | 333 (AUGGCAUACACCUGGCCCGU; chemistry not given here) [compound 333] | 14.31 | 0.86 | 49.63 | 0.50
